Measured values from patent US5338845A, “Aspergillus species, cyclic dimeric dipeptide derivative substance P antagonist biosynthetic products thereof, and process for preparation thereof” (Sterling Winthrop Inc., priority 1992, dated 1994).

Assays:
NK1 [1] = target: T1, NK1 (Cavia porcellus, UniProt P30547); test: NK1 functional assay: Substance P-induced contractility in the guinea pig ileum; assay type: cell-based; parameters: Substance P-induced contractility in the guinea pig ileum; from tissue; host or cells: guinea pig ileum (organ preparation)
NK1 [2] = target: T2, NK1 (Homo sapiens, UniProt P25103); test: NK1 functional assay: Substance P-induced 45Ca2+ efflux from human astrocytoma U373MG cells; assay type: cell-based; parameters: Human astrocytoma cells (U--373 MG, ATCC No. HTB 17) were cultured in 75-mL flasks; host or cells: U-373 MG human astrocytoma cells (intact monolayer); details: read-out: IC50, inhibition of Substance P-induced 45Ca2+ efflux
NK1 [3] = target: T2, NK1; test: Substance P NK1 receptor binding, 125I-Bolton Hunter Substance P, human astrocytoma cells (U-373 MG); parameters: host or cells: U-373 MG human astrocytoma cells (intact monolayer); details: for IC50: comparative test with ditryptophenaline, read-out: IC50, Substance P antagonist activity in human astrocytoma cells
Experimental: (§1) As stated above the compounds of Formula I are useful as Substance P antagonists and therefore as analgesic and/or antiinflammatory agents. Substance P antagonist NK1 receptor binding activity was determined using guinea pig submaxillary gland tissue and human astrocytoma cells.
Human astrocytoma cells (U--373 MG, ATCC No. HTB 17) were cultured in 75-mL flasks in an aqueous medium containing horse serum (heat inactivated, 10%), minimum essential amino acids (2%), minimum essential vitamin solution (2%), and an aqueous solution of penicillin (10,000 units/mL) and streptomycin (10,000 μg/mL) (Penn-Strep, 2%), which was sterilized by filtration through a disposable filter (Nalgene, VWR Cat. No. 28199-585). The medium was replaced twice weekly. Cells were passaged (1:4 split) by removing the medium and adding aqueous trypsin (0.25%, 8 mL/flask). The flasks were swirled for 30 seconds, the aqueous trypsin was removed, and the cells were incubated for 5 minutes at room temperature, then washed twice with fresh medium (7 mL each time). Poly-D-lysine solution (50 μg/mL in aqueous phosphate saline buffer, 0.25 mL) was added to each well of a sterile 96-well […] plate (Corning), which was then incubated at room temperature for 40 minutes. The poly-D-lysine solution was removed, each well was washed twice with aqueous phosphate saline buffer (0.25 mL), cells were added (0.2 mL/well), and the plate was incubated at 37° C. for two days in an oxygen-carbon dioxide (95:5) atmosphere to provide a monolayer of 1.4-1.9×10^4 cells per well.
To test for receptor binding the aqueous phosphate saline buffer was removed from each well, the cell monolayer was washed three times with assay buffer (aqueous 2-[4-(2-hydroxyethyl)-1-piperazinyl]ethanesulfonic acid [HEPES], 25 mM; potassium chloride, 5.8 mM; monopotassium phosphate, 2.2 mM; sodium chloride, 115 mM; magnesium sulfate, 0.6 mM; calcium chloride, 1.8 mM; bovine serum albumin, 1%; glucose, 5 mM; thiorphan, 1 μM; and bacitracin, 40 μg/mL; pH adjusted to 7.40 with dilute hydrochloric acid; 0.25 mL each time). To each well was then added assay buffer alone (0.1 mL) or a mixture (0.1 mL) with assay buffer as diluent containing ^125 I-Bolton Hunter Substance P (Amersham, Inc., Arlington Heights, Ill.; 0.1 nanomole) and test compound in amount to give the desired concentration thereof or, to determine nonspecific binding, unlabelled Substance P (0.1 micromole) and the plate was incubated at 25° C. for 90 minutes. […] The radioactivity of part (100 μL) of the detachment mixture was measured in a gamma ray counter (Packard Cobra). Kd and IC50 values were determined and a Ki value was calculated for each test compound as described above.

NK2 receptor [4] = target: T3, NK2 receptor (Rattus norvegicus, UniProt P16610); test: 125I-neurokinin A binding to the NK2 receptor in rat duodenum membranes; parameters: from tissue; details: read-out: Ki, inhibition of 125I-neurokinin A binding to the NK2 receptor
T3 sequence (P16610 1-390): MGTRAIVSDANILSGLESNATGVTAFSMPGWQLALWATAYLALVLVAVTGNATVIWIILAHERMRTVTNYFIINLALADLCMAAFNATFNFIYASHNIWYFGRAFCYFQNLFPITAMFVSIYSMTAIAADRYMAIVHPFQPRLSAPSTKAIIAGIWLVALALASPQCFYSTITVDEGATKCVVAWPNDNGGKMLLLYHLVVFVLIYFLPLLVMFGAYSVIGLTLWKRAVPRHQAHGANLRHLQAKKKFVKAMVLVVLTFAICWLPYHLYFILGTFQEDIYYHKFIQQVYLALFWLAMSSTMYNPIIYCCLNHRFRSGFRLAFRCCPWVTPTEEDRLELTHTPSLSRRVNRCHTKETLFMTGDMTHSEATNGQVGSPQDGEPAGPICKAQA

NK2 receptor [5] = target: T3, NK2 receptor; test: Eledoisin-induced contractility in rat vas deferens model; assay type: cell-based; parameters: from tissue; host or cells: rat vas deferens (organ preparation); details: functional antagonism at the NK2 receptor, read-out: IC50, inhibition of eledoisin-induced contractility
NK3 = target: T4, NK3 (Cavia porcellus, UniProt P30098); test: NK3 selective ligand 3H-senktide binding, guinea pig forebrain membrane preparation; details: read-out: IC50 against NK3 selective ligand 3H-senktide
T4 construct: tested in a guinea pig forebrain membrane preparation; from tissue; host or cells: guinea pig forebrain membrane preparation
T4 sequence (P30098 1-440): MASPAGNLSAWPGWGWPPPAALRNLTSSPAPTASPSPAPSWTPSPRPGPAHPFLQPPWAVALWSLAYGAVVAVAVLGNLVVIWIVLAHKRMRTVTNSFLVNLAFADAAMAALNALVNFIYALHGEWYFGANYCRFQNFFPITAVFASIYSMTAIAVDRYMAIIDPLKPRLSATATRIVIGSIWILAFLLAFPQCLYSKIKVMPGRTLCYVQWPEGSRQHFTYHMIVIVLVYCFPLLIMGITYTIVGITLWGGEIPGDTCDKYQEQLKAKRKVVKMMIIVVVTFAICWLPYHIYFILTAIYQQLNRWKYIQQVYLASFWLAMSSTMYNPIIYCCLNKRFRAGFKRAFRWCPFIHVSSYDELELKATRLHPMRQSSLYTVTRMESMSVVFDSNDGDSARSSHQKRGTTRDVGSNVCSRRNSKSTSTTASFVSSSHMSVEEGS

NK2 receptor [6] = target: T5, NK2 receptor (Homo sapiens, UniProt P21452); test: 125I-neurokinin A binding to the NK2 receptor in human urinary bladder membranes; details: read-out: Ki, inhibition of 125I-neurokinin A binding to the NK2 receptor
T5 construct: NK2 receptor in both rat duodenum and human urinary bladder membranes; from tissue; host or cells: human urinary bladder membranes
T5 sequence (P21452 1-398): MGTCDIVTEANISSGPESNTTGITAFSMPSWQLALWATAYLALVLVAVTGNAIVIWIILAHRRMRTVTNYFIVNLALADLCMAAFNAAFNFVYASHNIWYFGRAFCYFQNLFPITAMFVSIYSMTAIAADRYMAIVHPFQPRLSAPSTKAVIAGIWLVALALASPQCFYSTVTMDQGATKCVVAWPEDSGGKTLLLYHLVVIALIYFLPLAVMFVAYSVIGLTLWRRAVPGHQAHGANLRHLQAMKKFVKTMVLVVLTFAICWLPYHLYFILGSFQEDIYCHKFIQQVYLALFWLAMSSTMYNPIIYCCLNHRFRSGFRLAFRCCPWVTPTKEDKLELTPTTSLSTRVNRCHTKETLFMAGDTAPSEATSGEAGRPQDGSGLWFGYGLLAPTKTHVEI

NK1 [7] = target: T1, NK1; test: Substance P NK1 receptor binding, tritiated Substance P, guinea pig submaxillary gland tissue; parameters: the resulting submaxillary gland tissue preparation (1.0 to 1.5 mL) was stored at -70° C; tissue Pel Freeze Biologicals; host or cells: guinea pig submaxillary gland homogenate; details: tritiated Substance P 0.75 nM; Ki calculated from IC50 by Cheng-Prusoff; read-out: Ki Guinea Pig Submaxillary Gland Tissue (Substance P antagonist potency)
Experimental: as §1
Submaxillary glands from both sexes of Hartley guinea pigs were obtained from Pel Freeze Biologicals, Rogers, Arkansas by overnight express in a plastic bag kept cold in wet ice. […] Using serum bovine albumin as the standard the protein yield was determined by the Bradford method (Bio-Rad, Richmond, Calif.) to be 7-8 mg/mL or about 250 mg from 50 submaxillary glands.
To test for receptor binding a sample of the submaxillary gland tissue preparation was thawed on ice and rehomogenized with a glass homogenizer (Dounce). […] The residue on the filter was washed three times with tromethamine buffer (3 mL each time) and its radioactivity was measured in a liquid scintillation counter (Beckman LS5000) (x=number of counts per minute with test compound, y=number of counts per minute without test compound). […] The dissociation constant (Kd) for receptor binding was determined by varying the concentration of tritiated Substance P. The following calculations were made: […]

[8] = quoted from Springer et al., Tetrahedron Letters 1977; cited from earlier work

T2 sequence (P25103 whole entry): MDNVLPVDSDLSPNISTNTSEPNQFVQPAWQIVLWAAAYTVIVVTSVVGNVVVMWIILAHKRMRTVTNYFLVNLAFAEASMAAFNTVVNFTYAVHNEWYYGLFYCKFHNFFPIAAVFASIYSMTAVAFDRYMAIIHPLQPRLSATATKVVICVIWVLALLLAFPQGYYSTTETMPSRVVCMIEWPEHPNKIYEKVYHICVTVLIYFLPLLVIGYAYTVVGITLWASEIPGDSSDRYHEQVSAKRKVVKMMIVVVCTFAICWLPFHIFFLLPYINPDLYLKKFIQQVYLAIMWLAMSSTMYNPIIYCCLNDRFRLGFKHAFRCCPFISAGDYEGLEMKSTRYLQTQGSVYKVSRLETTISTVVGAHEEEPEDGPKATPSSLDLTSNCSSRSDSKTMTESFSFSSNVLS
T1 sequence (P30547 whole entry): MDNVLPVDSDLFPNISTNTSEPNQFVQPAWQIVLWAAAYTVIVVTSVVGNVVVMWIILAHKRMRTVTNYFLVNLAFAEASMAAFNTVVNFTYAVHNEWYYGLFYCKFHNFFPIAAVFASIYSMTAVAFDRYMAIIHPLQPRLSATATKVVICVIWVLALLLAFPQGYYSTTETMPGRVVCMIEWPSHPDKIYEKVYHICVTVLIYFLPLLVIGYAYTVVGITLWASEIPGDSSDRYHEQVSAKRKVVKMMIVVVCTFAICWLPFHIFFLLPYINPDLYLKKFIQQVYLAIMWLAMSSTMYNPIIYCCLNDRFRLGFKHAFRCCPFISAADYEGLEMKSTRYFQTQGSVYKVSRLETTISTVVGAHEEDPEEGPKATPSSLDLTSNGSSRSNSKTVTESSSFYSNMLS

O=C1N[C@@H](Cc2ccccc2)C(=O)N2[C@H]3Nc4ccccc4C3([C@]34C[C@H]5C(=O)N[C@@H](Cc6ccccc6)C(=O)N5[C@H]3Nc3ccccc34)C[C@@H]12 (stereo partly drawn) [Compound I-1]
pA2, competitive inhibition of Substance P-induced contractility (NK1 [1]): 6.6±0.31
IC50 (NK1 [2]): 600 ± 300 nM
Ki (NK1 [3]; U-373 MG cells, 125I-Bolton Hunter Substance P, Ki calculated from IC50, read-out: Ki Human Astrocytoma Cells (Substance P antagonist potency)): 240 nM
IC50 (NK1 [3]): 300 nM
Potency relative to ditryptophenaline (NK1 [3]; ratio of IC50 values in human astrocytoma cells): fortyfold
Ki (NK2 receptor [4]): 260 nM
IC50 (NK2 receptor [5]): 3400 ± 1300 nM
IC50 (NK3): 15200 nM
Ki (NK2 receptor [6]): 720 nM
Ki (NK1 [7]): 950 to 2400 nM

CN1C(=O)[C@@H]2C[C@@]3([C@@]45C[C@H]6C(=O)N(C)[C@@H](Cc7ccccc7)C(=O)N6[C@@H]4Nc4ccccc45)c4ccccc4N[C@H]3N2C(=O)[C@@H]1Cc1ccccc1 [ditryptophenaline, reference compound]
IC50 (NK1 [3]): 12000 nM
LD50 [8]: > 200 mg/kg
